Reference: the supplement of paper PMC10307832

Compound: COc1cc(Nc2ncc(F)c(Nc3ccc4c(n3)NC(=O)C(C)(C)O4)n2)cc(OC)c1OC [R406] + CC1(C)CCC(c2ccc(Cl)cc2)=C(CN2CCN(c3ccc(C(=O)NS(=O)(=O)c4ccc(N[C@H](CCN5CCOCC5)CSc5ccccc5)c(S(=O)(=O)C(F)(F)F)c4)cc3)CC2)C1 [Navitoclax] (partner 0.5 µM)
Assay: relative viability (nuclei count vs DMSO), 5 days (fraction); higher = more cells survive
Details: first compound 0.08 µM
Method in brief: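 Each reported value is a median over duplicate plates. It expresses relative viability: treated-well nuclei count divided by vehicle-well nuclei count. Lung cancer cell lines in 1536-well plates were dosed by pin tool a day after seeding, alone with one drug or with a fixed anchor-drug dose plus five library-drug doses (not always all listed) in √10 steps, and nuclei were counted after 5 days.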

In order of rising relative viability:
1. SK-LU-1  0.483
2. LC-2-ad  0.514
3. NCI-H23  0.712
4. HCC-15  0.732
5. NCI-H2347  0.736
6. NCI-H1915  0.769
7. EKVX  0.814
8. PC-3 [JPC-3]  0.828
9. NCI-H2023  0.896
10. LXF-289  0.942
11. SW 1573  0.956
12. NCI-H1755  0.983
13. NCI-H1944  0.992
14. NCI-H520  1.02
15. NCI-H1975  1.02
16. EPLC-272H  1.03
17. HCC-827  1.04
18. NCI-H1355  1.05
19. NCI-H3122  1.06
20. NCI-H1651  1.08
21. RERF-LC-KJ  1.09
22. NCI-H1437  1.1
23. 201T  1.16
24. CAL-12T  1.16
25. NCI-H2228  1.17
26. NCI-H1395  1.18

Same assay, conditions: first compound 0.253 µM

In order of falling relative viability:
1. NCI-H460  1.35
2. NCI-H2228  1.33
3. NCI-H1651  1.29
4. NCI-H322M  1.23
5. NCI-H2009  1.23
6. CAL-12T  1.21
7. NCI-H1975  1.2
8. SK-LU-1  1.2
9. NCI-H1395  1.18
10. EPLC-272H  1.18
11. NCI-H1437  1.16
12. 201T  1.15
13. HARA  1.14
14. SW 1573  1.1
15. NCI-H520  1.09
16. NCI-H1944  1.05
17. NCI-H1755  1.04
18. EKVX  1.03
19. A-427  1.02
20. LXF-289  1.01
21. NCI-H1734  0.982
22. NCI-H2023  0.975
23. NCI-H3122  0.971
24. HCC-827  0.952
25. NCI-H1355  0.94
26. HCC-78  0.899
27. NCI-H23  0.884
28. NCI-H2347  0.824
29. PC-3 [JPC-3]  0.819
30. NCI-H1915  0.799
31. HCC-15  0.77
32. RERF-LC-KJ  0.64
33. LCLC-97TM1  0.511
34. LC-2-ad  0.479
35. BEN  0.0733

Same assay, conditions: first compound 0.8 µM

In order of falling relative viability:
1. NCI-H1395  1.49
2. NCI-H322M  1.28
3. NCI-H2009  1.25
4. NCI-H460  1.25
5. SW 1573  1.2
6. NCI-H1734  1.13
7. HARA  1.12
8. NCI-H520  1.05
9. A-427  0.981
10. NCI-H2347  0.95
11. HCC-78  0.876
12. LCLC-97TM1  0.519
13. BEN  0.0583
